Values quoted from earlier work in patent publication US20250041489A1, “A Drug Coating Formulation for a Sirolimus Coated Balloon Catheter” (C. R. Bard, Inc., priority 2021, published 2025).

Conditions: compared to amorphous sirolimus

## CO[C@H]1C[C@@H]2CC[C@@H](C)[C@@](O)(O2)C(=O)C(=O)N2CCCC[C@H]2C(=O)O[C@H]([C@H](C)C[C@@H]2CC[C@@H](O)[C@H](OC)C2)CC(=O)[C@H](C)/C=C(\C)[C@@H](O)[C@@H](OC)C(=O)[C@H](C)C[C@H](C)/C=C/C=C/C=C/1C [crystalline sirolimus, sirolimus]
  Half-life of sirolimus on the surface of a balloon: four weeks
